In patent US10294234B2, “HIV inhibitor compounds” (priority 2017, dated 2019):
Where two headings read alike, the source gives them in different places.

Tested on: HIV-1 (IIIB) in MT-4 cells
Assay: MT-4 HIV assay
Assay type: cell-based
Conditions: Human immunodeficiency virus 1, MT4, 120 h
Procedure, shortened: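 Antiviral activity was read by Cell Titer Glo after a 5-day, 37 °C culture of MT-4 cells pre-infected with a 1:250 dilution of HIV-1 (IIIB). Compounds were tested as threefold dilution series in complete RPMI. Controls were no drug, mock infection and 5 uM AZT.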

[1] = HIV-1 (IIIB), MT-4 cells, 5 days, Cell Titer Glo, read-out: EC50

COC(=O)N[C@H](C(=O)N[C@@H](Cc1ccc(C#Cc2ccc(N3CCN4CCOC[C@H]4C3)nc2)cc1)[C@@H](O)CN(Cc1c(F)cc(-c2ccn(C3CC3)n2)cc1F)NC(=O)[C@@H](NC(=O)OC)C(C)(C)C(F)(F)F)C(C)(C)C(F)(F)F [Example 136, methyl ((5S,8S,9S,14S)-11-(4-(1-cyclopropyl-1H-pyrazol-3-yl)-2,6-difluorobenzyl)-16,16,16-trifluoro-8-(4-((6-((R)-hexahydropyrazino[2,1-c][1,4]oxazin-8(1H)-yl)pyridin-3-yl)ethynyl)benzyl)-9-hydroxy-15,15-dimethyl-3,6,13-trioxo-5-(1,1,1-trifluoro-2-methylpropan-2-yl)-2-oxa-4,7,11,12-tetraazahexadecan-14-yl)carbamate]
EC50 [1]: 3.85 nM

COC(=O)N[C@H](C(=O)NN(Cc1c(F)cc(-c2ncccn2)cc1F)C[C@H](O)[C@H](Cc1ccc(C#Cc2ccc(N3CCN(C4COC4)CC3)nc2)cc1)NC(=O)[C@@H](NC(=O)OC)C(C)(C)C(F)(F)F)C(C)(C)C [Example 94, methyl ((5S,8S,9S,14S)-11-(2,6-difluoro-4-(pyrimidin-2-yl)benzyl)-9-hydroxy-15,15-dimethyl-8-(4-((6-(4-(oxetan-3-yl)piperazin-1-yl)pyridin-3-yl)ethynyl)benzyl)-3,6,13-trioxo-5-(1,1,1-trifluoro-2-methylpropan-2-yl)-2-oxa-4,7,11,12-tetraazahexadecan-14-yl)carbamate]
EC50 [1]: 2.57 nM

CC(=O)N[C@H](C(=O)N[C@@H](Cc1ccc(C#Cc2ccc(N3CC4CCC(C3)N4C3COC3)nc2)cc1)[C@@H](O)CN(Cc1c(F)cc(-c2ccn(C(F)F)n2)cc1F)NC(=O)[C@@H](NC(C)=O)C(C)(C)C(F)(F)F)C(C)(C)C(F)(F)F [Example 182, (2S)-2-acetamido-N-((2S,3S)-4-(2-((S)-2-acetamido-4,4,4-trifluoro-3,3-dimethylbutanoyl)-1-(4-(1-(difluoromethyl)-1H-pyrazol-3-yl)-2,6-difluorobenzyl)hydrazinyl)-3-hydroxy-1-(4-((6-(8-(oxetan-3-yl)-3,8-diazabicyclo[3.2.1]octan-3-yl)pyridin-3-yl)ethynyl)phenyl)butan-2-yl)-4,4,4-trifluoro-3,3-dimethylbutanamide]
EC50 [1]: 8.82 nM

COC(=O)N[C@H](C(=O)N[C@@H](Cc1ccc(C#Cc2ccc(N3CC4CCC(C3)N4C3COC3)nc2)cc1)[C@@H](O)CN(Cc1c(F)cc(-c2ccn(C)n2)cc1F)NC(=O)[C@@H](NC(=O)OC)C(C)(C)C)C(C)(C)C [Example 22, Methyl ((5S,8S,9S,14S)-5-(tert-butyl)-1-(2,6-difluoro-4-(1-methyl-1H-pyrazol-3-yl)benzyl)-9-hydroxy-15,15-dimethyl-8-(4-((6-(8-(oxetan-3-yl)-3,8-diazabicyclo[3.2.1]octan-3-yl)pyridin-3-yl)ethynyl)benzyl)-3,6,13-trioxo-2-oxa-4,7,11,12-tetraazahexadecan-14-yl)carbamate]
EC50 [1]: 3.24 nM

COC(=O)N[C@H](C(=O)N[C@@H](Cc1ccc(C#Cc2ccc(N3CC4CCC(C3)N4C3COC3)nc2)cc1)[C@@H](O)CN(Cc1ccc(-c2ccn(CC(F)F)n2)cc1)NC(=O)[C@@H](NC(=O)OC)C(C)(C)C(F)(F)F)C(C)(C)C(F)(F)F [Example 3, Methyl ((5S,10S,11S,14S)-8-(4-(1-(2,2-difluoroethyl)-1H-pyrazol-3-yl)benzyl)-16,16,16-trifluoro-10-hydroxy-15,15-dimethyl-11-(4-((6-(8-(oxetan-3-yl)-3,8-diazabicyclo[3.2.1]octan-3-yl)pyridin-3-yl)ethynyl)benzyl)-3,6,13-trioxo-5-(1,1,1-trifluoro-2-methylpropan-2-yl)-2-oxa-4,7,8,12-tetraazahexadecan-14-yl)carbamate]
EC50 [1]: 6.95 nM

COC(=O)N[C@H](C(=O)N[C@@H](Cc1ccc(-c2ccc(N3C[C@H]4C[C@@H]3CN4C3COC3)nc2)cc1)[C@@H](O)CN(Cc1c(F)cc(-c2ccn(CC(F)F)n2)cc1F)NC(=O)[C@@H](NC(=O)OC)C(C)(C)C(F)(F)F)C(C)(C)C(F)(F)F [Example 188, methyl ((5S,8S,9S,14S)-11-(4-(1-(2,2-difluoroethyl)-1H-pyrazol-3-yl)-2,6-difluorobenzyl)-16,16,16-trifluoro-9-hydroxy-15,15-dimethyl-8-(4-(6-((1R,4R)-5-(oxetan-3-yl)-2,5-diazabicyclo[2.2.1]heptan-2-yl)pyridin-3-yl)benzyl)-3,6,13-trioxo-5-(1,1,1-trifluoro-2-methylpropan-2-yl)-2-oxa-4,7,11,12-tetraazahexadecan-14-yl)carbamate]
EC50 [1]: 9 nM

COC(=O)N[C@H](C(=O)N[C@@H](Cc1ccc(C#Cc2ccc(N3CC4CCC(C3)N4C3COC3)cc2)cc1)[C@@H](O)CN(Cc1c(F)cc(-c2ccccn2)cc1F)NC(=O)[C@@H](NC(=O)OC)C(C)(C)C(F)(F)F)C(C)(C)C(F)(F)F [Example 177, Methyl ((5S,8S,9S,14S)-11-(2,6-difluoro-4-(pyridin-2-yl)benzyl)-16,16,16-trifluoro-9-hydroxy-15,15-dimethyl-8-(4-((4-(8-(oxetan-3-yl)-3,8-diazabicyclo [3.2.1]octan-3-yl)phenyl)ethynyl)benzyl)-3,6,13-trioxo-5-(1,1,1-trifluoro-2-methylpropan-2-yl)-2-oxa-4,7,11,12-tetraazahexadecan-14-yl)carbamate]
EC50 [1]: 8.12 nM

COC(=O)N[C@H](C(=O)N[C@@H](Cc1ccc(C#Cc2ccc(N3CCN4CCOC[C@H]4C3)nc2)cc1)[C@@H](O)CN(Cc1c(F)cc(-c2cc(F)ccn2)cc1F)NC(=O)[C@@H](NC(=O)OC)C(C)(C)C(F)(F)F)C(C)(C)C(F)(F)F [Example 137, Methyl ((5S,8S,9S,14S)-11-(2,6-difluoro-4-(4-fluoropyridin-2-yl)benzyl)-16,16,16-trifluoro-8-(4-((6-((R)-hexahydropyrazino[2,1-c][1,4]oxazin-8(1H)-yl)pyridin-3-yl)ethynyl)benzyl)-9-hydroxy-15,15-dimethyl-3,6,13-trioxo-5-(1,1,1-trifluoro-2-methylpropan-2-yl)-2-oxa-4,7,11,12-tetraazahexadecan-14-yl)carbamate]
EC50 [1]: 3.31 nM

COC(=O)N[C@H](C(=O)NN(Cc1c(F)cc(-c2ccccn2)cc1F)C[C@H](O)[C@H](Cc1ccc(C#Cc2ccc(N3CC4CCC(C3)N4C(=O)[C@@H]3CCCO3)nc2)cc1)NC(=O)[C@@H](NC(=O)OC)C(C)(C)C(F)(F)F)C(C)(C)C [Example 224, Methyl ((5S,8S,9S,14S)-11-(2,6-difluoro-4-(pyridin-2-yl)benzyl)-9-hydroxy-15,15-dimethyl-3,6,13-trioxo-8-(4-((6-(8-((S)-tetrahydrofuran-2-carbonyl)-3,8-diazabicyclo [3.2.1]octan-3-yl)pyridin-3-yl)ethynyl)benzyl)-5-(1,1,1-trifluoro-2-methylpropan-2-yl)-2-oxa-4,7,11,12-tetraazahexadecan-14-yl)carbamate]
EC50 [1]: 4.12 nM

COC(=O)N[C@H](C(=O)N[C@@H](Cc1ccc(C#Cc2ccc(N3CC4CCC(C3)N4C3COC3)nc2)cc1)[C@@H](O)CN(Cc1ccc(-c2ccc(F)cn2)cc1)NC(=O)[C@@H](NC(=O)OC)C(C)(C)C(F)(F)F)C(C)(C)C(F)(F)F [Example 111, Methyl ((5S,8S,9S,14S)-16,16,16-trifluoro-11-(4-(5-fluoropyridin-2-yl)benzyl)-9-hydroxy-15,15-dimethyl-8-(4-((6-(8-(oxetan-3-yl)-3,8-diazabicyclo [3.2.1]octan-3-yl)pyridin-3-yl)ethynyl)benzyl)-3,6,13-trioxo-5-(1,1,1-trifluoro-2-methylpropan-2-yl)-2-oxa-4,7,11,12-tetraazahexadecan-14-yl)carbamate]
EC50: 7.22 nM

COC(=O)N[C@H](C(=O)N[C@@H](Cc1ccc(C#Cc2ccc(N3CC4CCC(C3)N4C3COC3)nc2)cc1)[C@@H](O)CN(Cc1c(F)cc(-c2ccn([C@@H]3CCOC3)n2)cc1F)NC(=O)[C@@H](NC(=O)OC)C(C)(C)C(F)(F)F)C(C)(C)C(F)(F)F [Example 15, Methyl ((5S,8S,9S,14S)-11-(2,6-difluoro-4-(1-((R)-tetrahydrofuran-3-yl)-1H-pyrazol-3-yl)benzyl)-16,16,16-trifluoro-9-hydroxy-15,15-dimethyl-8-(4-((6-(8-(oxetan-3-yl)-3,8-diazabicyclo[3.2.1]octan-3-yl)pyridin-3-yl)ethynyl)benzyl)-3,6,13-trioxo-5-(1,1,1-trifluoro-2-methylpropan-2-yl)-2-oxa-4,7,11,12-tetraazahexadecan-14-yl)carbamate]
EC50 [1]: 4.22 nM

COC(=O)N[C@H](C(=O)N[C@@H](Cc1ccc(C#Cc2ccc(N3CCN(C4(C)COC4)CC3)nc2)cc1)[C@@H](O)CN(Cc1c(F)cc(-c2ccn(C(F)F)n2)cc1F)NC(=O)[C@@H](NC(=O)OC)C(C)(C)C(F)(F)F)C(C)(C)C(F)(F)F [Example 141, methyl ((5S,8S,9S,14S)-11-(4-(1-(difluoromethyl)-1H-pyrazol-3-yl)-2,6-difluorobenzyl)-16,16,16-trifluoro-9-hydroxy-15,15-dimethyl-8-(4-((6-(4-(3-methyloxetan-3-yl)piperazin-1-yl)pyridin-3-yl)ethynyl)benzyl)-3,6,13-trioxo-5-(1,1,1-trifluoro-2-methylpropan-2-yl)-2-oxa-4,7,11,12-tetraazahexadecan-14-yl)carbamate]
EC50: 6.68 nM

COC(=O)N[C@H](C(=O)N[C@@H](Cc1ccc(C#Cc2ccc(N3CC4CCC(C3)N4C3COC3)nc2)cc1)[C@@H](O)CN(Cc1ccc(-c2ccc(F)cn2)cc1F)NC(=O)[C@@H](NC(=O)OC)C(C)(C)C(F)(F)F)C(C)(C)C(F)(F)F [Example 235, methyl ((5S,8S,9S,14S)-16,16,16-trifluoro-11-(2-fluoro-4-(5-fluoropyridin-2-yl)benzyl)-9-hydroxy-15,15-dimethyl-8-(4-((6-(8-(oxetan-3-yl)-3,8-diazabicyclo[3.2.1]octan-3-yl)pyridin-3-yl)ethynyl)benzyl)-3,6,13-trioxo-5-(1,1,1-trifluoro-2-methylpropan-2-yl)-2-oxa-4,7,11,12-tetraazahexadecan-14-yl)carbamate]
EC50 [1]: 16.7 nM
